In patent publication US20230303581A1, “ORALLY BIOAVAILABLE, BRAIN-PENETRANT COMPOUND WITH SELECTIVITY FOR THE CANNABINOID TYPE 2 RECEPTOR WITH POTENTIAL USE TOWARDS VISCERAL PAIN MANAGEMENT AND NEURODEGENERATIVE DISORDERS” (University of Mississippi, priority 2022, published 2023):
Several values for one entry are separate records, joined by “and”; a condition that tells them apart may be missing. Equal values may be shown once. Entries after “also recorded” stand apart in the source; their conditions may differ. Read-outs that look alike come from different tables or passages of the source.

Tests used:
human CB2 receptors = human CB2 receptors (Homo sapiens (Human), UniProt P34972); experiment: Cannabinoid receptor binding (displacement) assay, CB2; conditions: for Ki: CB2, full competition curves; for Displacement of [3H]CP-55,940 from CB2: 10 μM compound
human CB2 receptors, sequence (P34972 whole entry): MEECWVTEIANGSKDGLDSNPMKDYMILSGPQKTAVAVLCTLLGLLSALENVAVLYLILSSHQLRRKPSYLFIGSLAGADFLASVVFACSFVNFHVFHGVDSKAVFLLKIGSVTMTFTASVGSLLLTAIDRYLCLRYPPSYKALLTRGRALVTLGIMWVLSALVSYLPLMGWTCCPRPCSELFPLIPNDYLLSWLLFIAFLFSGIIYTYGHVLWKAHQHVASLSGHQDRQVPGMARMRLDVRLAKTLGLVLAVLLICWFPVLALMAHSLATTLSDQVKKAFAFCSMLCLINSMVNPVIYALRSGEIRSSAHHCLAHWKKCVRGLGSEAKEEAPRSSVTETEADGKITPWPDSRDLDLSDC
Description: (§1) The affinities of the compounds for CB1 and CB2 receptors were examined using displacement assays, as previously described. Briefly, cell membranes from CHO cells expressing human CB1 or human CB2 receptors were isolated using differential centrifugation. Test compounds reconstituted in DMSO and were incubated with the isolated membrane in binding buffer (50 mM Tris-HCl, 1 mM EDTA, 3 mM MgCl2, 5 mg/mL BSA, pH 7.4) along with 2.5 nM [^3H]CP-55,940. Total binding was assessed in the presence of equal concentration of DMSO, while non-specific binding was determined in the presence of 10 μM CP-55,940, and background binding was determined in wells lacking membrane. Following incubation at 30° C. for 60 min, the binding reactions were terminated by vacuum filtration through Whatman GF/C filters. The filters were then washed twice with ice-cold buffer (50 mM Tris-HCl, 1 mg/mL BSA). Liquid scintillation cocktail was added to each well and the total tritiated counts per minute were analyzed using a TopCount scintillation counter. Background counts were subtracted from all wells and the percent displacement from total binding was calculated.
(§2) The compounds were initially screened at 10 μM concentrations. If they produced at least ±30% displacement of the radioligand, then full competition curves were constructed. Ki values were calculated using GraphPad Prism (San Diego, CA, USA) and Kd values determined using a 1 site fit. All assays were run in technical and biological replicates so that the n=5-6. PK Evaluation in CD-1 Mice
(§3) The CB1/CB2 receptor binding activities of analogs 4a-4q were assessed via radioactivity-based competitive binding assays using [^3H]CP55,940, an extensively studied radioligand that is frequently used for cannabinoid assays. […] In preliminary screening, all 17 synthetic PBD compounds (4a-4q) were subjected to in vitro CB1 and CB2 binding assays at a single concentration of 10 μM. […] Therefore, the most promising ligands (4k and 4q) were selected for assessment in full competition curves against CB1 and CB2.

human CB1 receptors = human CB1 receptors (Homo sapiens (Human), UniProt P21554); experiment: Cannabinoid receptor binding (displacement) assay, CB1; conditions: 10 μM compound
human CB1 receptors, sequence (P21554 whole entry): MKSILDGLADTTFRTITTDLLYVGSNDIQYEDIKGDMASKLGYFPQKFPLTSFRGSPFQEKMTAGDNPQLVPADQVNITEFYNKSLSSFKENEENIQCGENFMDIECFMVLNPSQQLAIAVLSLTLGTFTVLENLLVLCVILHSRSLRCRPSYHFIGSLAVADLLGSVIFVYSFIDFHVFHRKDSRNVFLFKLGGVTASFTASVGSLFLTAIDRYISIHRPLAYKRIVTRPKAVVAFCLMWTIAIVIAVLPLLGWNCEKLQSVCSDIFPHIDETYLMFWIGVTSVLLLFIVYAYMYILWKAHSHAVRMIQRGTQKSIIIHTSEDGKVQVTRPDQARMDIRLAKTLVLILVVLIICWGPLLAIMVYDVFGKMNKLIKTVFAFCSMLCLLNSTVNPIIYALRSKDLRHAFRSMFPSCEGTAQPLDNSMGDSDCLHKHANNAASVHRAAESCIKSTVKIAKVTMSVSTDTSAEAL
Description: as §1, §2, §3

mice [1] = experiment: Acetic acid-induced writhing test; format: in vivo; conditions: for writhing over 30 minutes: oxycodone 3 mg/kg, compound 4k 5 mg/kg, versus vehicle
From the text: Acetic acid-induced writhing is widely used for assessing analgesic effects against inflammatory pain of peripheral origin.

[2] = Stability studies under physiological pH; format: physicochemical; conditions: 4k compared to 4q; data not reported
[3] = PK evaluation in CD-1 mice (plasma and tissue concentrations); format: in vivo
Description: The primary stock solutions of 4k and phenacetin (internal standard, IS) were prepared in methanol at a concentration of 1.0 mg/mL. Working solutions of calibration standards and quality control (QC) samples were prepared by dilution with methanol and stored at −20° C. A working stock of the IS solution (20 ng/mL) was prepared in methanol and stored at −20° C.
Chromatography was performed on an Acquity™ UPLC system (Waters Corp, Milford, MA, USA) with an autosampler temperature at 10° C. Waters Acquity UPLC® HSS C18 column (3.0×50 mm, 1.8 μm particle size) was used for chromatographic separation with linear gradient elution consisting of (A) 90% acetonitrile and (B) 10% 0.2% formic acid in Milli-Q water as mobile phases. The flow rate was set at 0.30 mL/min, and the injection volume was 2 μL.
An Acquity Tandem Quadrupole Mass Detector (Xevo TQ-S; Waters Corp, Milford, MA, USA) in positive electrospray ionization mode was used for mass spectrometric detection. For collision-induced dissociation, argon was used as collision gas. The cone voltage and collision energy were set at 60 V and 34 V for 4k and 46 V and 26 V for the IS, respectively. Quantification was performed using the monitoring of multiple reaction monitoring (MRM) of following transitions: m/z 409.0/220.9 for 4k and m/z 180.0/92.7 for IS. Retention times of 4k and IS were 2.85 and 1.81 min, respectively.
A simple protein precipitation method was followed for extraction of 4k from mice plasma. To an aliquot of 50 μL of plasma or tissue (brain, liver, or kidney) samples, IS solution (5 μL of 20 ng/mL) was added and mixed for 15 s on a cyclomixer (Thermo Scientific, Indianapolis, IN, USA). After precipitation with 200 μL of acetonitrile, the mixture was vortexed for 2 min, followed by centrifugation for 10 min at 14,000 rpm on an accuSpin Micro 17R (Fisher Scientific, Suwanee, GA, USA) at 5° C. An aliquot of ˜150 μL of clear supernatant was transferred into vials and 2 μL was injected onto LC-MS/MS system for analysis.
Male CD-1 mice (N=48) were obtained from Envigo (St. Louis, MO, USA) and maintained on a 12:12 h reversed dark/light cycle (lights off at 07:00 h) with ad libitum access to food and water. Following a ˜4 h fast, animals were randomly assigned to one of two groups. Group I and II animals (n=24/group, weight range 25-30 g) received compound 4k (5 mg/kg) orally (in the form of a solution, prepared using 10% absolute alcohol, 10% cremophor, and 80% Milli-Q water) or intravenously (i.v., using solution formulation comprising 10% absolute alcohol, 10% cremophor, and 80% normal saline), respectively. At 0.5, 1, 2, 4, 8, and 24 h post administration, animals were euthanized, blood was collected in K2. EDTA-containing polypropylene tubes and, tissues were collected (brain, liver, and kidney). Plasma was harvested by centrifuging the blood using Eppendorf 5430R Centrifuge (Germany) at 5000 rpm for 5 min and stored frozen at −80° C. until analysis.
Brain, liver, and kidney tissues were homogenized in separate 15 mL round-bottom screw-capped vials in phosphate buffered saline (5 volumes of each tissue mass) with a homogenizer (Polytron®) and stored at −80° C. until analysis. Plasma or tissue homogenates (50 μL) were spiked with IS and processed as mentioned in sample preparation section.
Plasma and tissue concentration and time data of compound 4k were analyzed by a non-compartmental method using WinNonlin Version 5.3 (Pharsight Corporation, Mountain View, CA, USA).

mice [4] = experiment: Conditioned place preference test; format: in vivo; conditions: FIG. 4
From the text: Conditioned place preference testing is used to assess a compound's rewarding effects in order to gauge potential abuse liability. Mice are “conditioned” to associate distinctly lighted/colored/textured chambers with a rewarding drug (e.g., opioid) or no drug. If the mice sense a rewarding effect of the drug, they will prefer to occupy the chamber associated with that drug. FIG. 4 presents the results of a conditioned place preference test for 3 groups of mice (i.e., vehicle, oxycodone treated, and compound 4k treated).

[5] = male, CD-1, mouse, intravenous 5 mg/kg, brain
[6] = male, CD-1, mouse, intravenous 5 mg/kg, kidney
[7] = male, CD-1, mouse, intravenous 5 mg/kg, liver
[8] = male, CD-1, mouse, intravenous 5 mg/kg, plasma
[9] = male, CD-1, mouse, oral 5 mg/kg, brain
[10] = male, CD-1, mouse, oral 5 mg/kg, kidney
[11] = male, CD-1, mouse, oral 5 mg/kg, liver
[12] = male, CD-1, mouse, oral 5 mg/kg, plasma

O=C1c2ccccc2N/C(=N/N=C/C23CC4CC(CC(C4)C2)C3)[C@@H]2CCCN12 [Compound 4q]
Ki (human CB2 receptors): 137 nM

O=C1c2ccccc2N/C(=N/N=C/c2sc(Cl)nc2Cl)[C@@H]2CCCN12 [Compound 4g]
Displacement of [3H]CP-55,940 from CB2 (human CB2 receptors): 29.27%
Displacement of [3H]CP-55,940 from CB1 (human CB1 receptors): 24.19%

O=C1c2ccc(Cl)cc2N/C(=N/N=C/c2cc3ccccc3s2)[C@@H]2CCCN12 [Compound 4k]
number writhes per 5 min (mice [1]; FIG. 3A, 4k 5 mg/kg versus vehicle): lower
total frequency of writhes over the entire experiment (mice [1]; FIG. 3B, 30 min): lowest
writhing over 30 minutes (mice [1]): attenuate writhing; also recorded: significantly less writhing
tolerance under physiological pH [2]: better tolerance
Ki (human CB2 receptors): 146 nM
AUC0-∞ ([3]; intravenous 5 mg/kg, brain): 5685 ng·h/g
AUC0-∞ ([3]; intravenous 5 mg/kg, kidney): 13272 ng·h/g
AUC0-∞ ([3]; intravenous 5 mg/kg, liver): 19991 ng·h/g
clearance as share of hepatic blood flow in mice ([3]; intravenous 5 mg/kg, plasma): 26%
clearance [3, 5]: 15.7 ± 2.31 mL/min/kg
half-life [3, 5]: 6.54 ± 1.38 h
clearance [3, 6]: 6.38 ± 0.49 mL/min/kg
half-life [3, 6]: 10.2 ± 0.49 h
clearance [3, 7]: 4.28 ± 0.38 mL/min/kg
half-life [3, 7]: 9.26 ± 0.67 h
Vd [3, 8]: 14.3 ± 3.11 L/kg
clearance [3, 8]: 23.5 ± 5.35 mL/min/kg
half-life [3, 8]: 6.91 ± 0.15 h
Cmax ([3]; male, CD-1, mouse, intravenous 5 mg/kg, plasma, read-out: Cmax Or C0): 4340 ng/mL
Tmax [3, 9]: 1.25 ± 0.44 h
half-life [3, 9]: 22.9 ± 3.73 h
Cmax ([3]; male, CD-1, mouse, oral 5 mg/kg, brain, read-out: Cmax): 602 ± 44.8 ng/g
bioavailability ([3]; male, CD-1, mouse, oral 5 mg/kg, brain, read-out: F (apparent oral bioavailability)): 43%
Tmax [3, 10]: 0.75 ± 0.15 h
half-life [3, 10]: 16.7 ± 1.61 h
Cmax ([3]; male, CD-1, mouse, oral 5 mg/kg, kidney, read-out: Cmax): 795 ± 22.6 ng/g
bioavailability ([3]; male, CD-1, mouse, oral 5 mg/kg, kidney, read-out: F (apparent oral bioavailability)): 37 ± 3.78%
Tmax [3, 11]: 0.75 ± 0.15 h
half-life [3, 11]: 13 ± 0.97 h
Cmax ([3]; male, CD-1, mouse, oral 5 mg/kg, liver, read-out: Cmax): 1890 ± 282 ng/g
bioavailability ([3]; male, CD-1, mouse, oral 5 mg/kg, liver, read-out: F (apparent oral bioavailability)): 32 ± 2.86%
AUC(0-inf) [3, 12]: 739 ± 6.75 ng·h/mL
Tmax [3, 12]: 0.88 ± 0.13 h
half-life [3, 12]: 16.4 ± 1.66 h
Cmax ([3]; male, CD-1, mouse, oral 5 mg/kg, plasma, read-out: Cmax): 198 ± 11.5 ng/mL
bioavailability ([3]; male, CD-1, mouse, oral 5 mg/kg, plasma, read-out: F (bioavailability)): 18 ± 2.43%
AUC0-∞ ([3]; oral 5 mg/kg, kidney): 5223 ± 44.75 ng·h/g and 5223 ng·h/g
AUC0-∞ ([3]; oral 5 mg/kg, liver): 6423 ± 571 ng·h/g and 6423 ng·h/g
place preference (rewarding effect, abuse liability) (mice [4]): no significant rewarding effects; also recorded: no such preference

Nc1ncc(/C=N/N=C2/Nc3ccccc3C(=O)N3CCC[C@@H]23)s1 [Compound 4f]
Displacement of [3H]CP-55,940 from CB2 (human CB2 receptors): 3.72%
Displacement of [3H]CP-55,940 from CB1 (human CB1 receptors): 1.75%

Cc1ncsc1/C=N/N=C1/Nc2ccccc2C(=O)N2CCC[C@@H]12 [Compound 4e]
Displacement of [3H]CP-55,940 from CB2 (human CB2 receptors): 19.86%
Displacement of [3H]CP-55,940 from CB1 (human CB1 receptors): 21.88%

COc1ccc2c3c1O[C@H]1C(=O)CC[C@@]4(O)[C@@H](C2)N(C)CC[C@]314 [oxycodone, reference compound]
writhing over 30 minutes (mice [1]): attenuate writhing
place preference (rewarding effect, abuse liability) (mice [4]): clear place preference

(S,E)-11-[(Thiazol-5-ylmethylene)hydrazono]-pyrrolo[2,1-c][1,4] Benzodiazepine [Compound 4c]
Displacement of [3H]CP-55,940 from CB2 (human CB2 receptors): 3.06%
Displacement of [3H]CP-55,940 from CB1 (human CB1 receptors): 0.25%

Cc1c(/C=N/N=C2/Nc3ccccc3C(=O)N3CCC[C@@H]23)sc2ccccc12 [Compound 4l]
Displacement of [3H]CP-55,940 from CB2 (human CB2 receptors): 51.73%
Displacement of [3H]CP-55,940 from CB1 (human CB1 receptors): 77.17%

(S,E)-11-[(Benzo[b]thiophen-2-ylmethylene)hydrazono]-7-bromo-pyrrolo[2,1-c][1,4]Benzodiazepine [Compound 4i]
Displacement of [3H]CP-55,940 from CB2 (human CB2 receptors): 36.39%
Displacement of [3H]CP-55,940 from CB1 (human CB1 receptors): 49.82%
